Here are results for 1 compound from BindingDB's records for doi:10.1021/jm8008647 (Ewha Womans University, 2008).

Structures are written as SMILES.

The assay addresses T1, Adenosine receptor A3 (Rattus norvegicus, UniProt P28647).
T1 sequence (P28647 whole entry): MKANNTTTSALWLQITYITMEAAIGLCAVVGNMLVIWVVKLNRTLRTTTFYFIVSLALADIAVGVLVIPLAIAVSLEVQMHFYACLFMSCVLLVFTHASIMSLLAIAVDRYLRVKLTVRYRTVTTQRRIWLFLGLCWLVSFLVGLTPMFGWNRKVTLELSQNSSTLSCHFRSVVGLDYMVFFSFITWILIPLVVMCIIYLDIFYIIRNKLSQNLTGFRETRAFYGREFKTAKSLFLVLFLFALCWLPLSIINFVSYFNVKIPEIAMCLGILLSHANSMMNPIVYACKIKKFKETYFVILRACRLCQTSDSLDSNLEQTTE
Briefly: Displacement of [125I]I-AB-MECA from rat adenosine A3 receptor expressed in CHO cells.

As for `O[C@@H]1[C@H](O)CS[C@H]1n1cnc2c(NCc3cccc(I)c3)ncnc21` [(2R,3R,4S)-2-(6-(3-Iodobenzylamino)-9H-purin-9-yl)-tetrahydrothiophene-3,4-diol], the affinity corresponds to a Ki of 48 nM.
